We go through one molecule from patent US5254801A, “Heterologous dominant conditional lethal gene which is a phosphonate monoester hydrolase and use thereof in plants” (Monsanto Company, priority 1990, dated 1993).

Experiment [1] deals with PG2982. The experiment can be described thus: In vivo (3-14C-) glyceryl glyphosate hydrolysis assay in whole cells. Format: cell-based, Pseudomonas caryophilli. Conditions: strain PG2982; three hour incubation, 30° C. The procedure:
Bacteria which grew in this medium using glyceryl glyphosate as a sole phosphate source had the ability to cleave both the ester and the phosphonate bond to release the free phosphate. For these bacteria to be useful in the present invention, the first step in the mineralization of glyceryl glyphosate needed is the hydrolysis of the phosphonate ester. Each of the three bacteria which utilized glyceryl glyphosate as a phosphate source were then assayed for a phosphonate monoester hydrolase activity using an in vivo (3-^14 C-) glyceryl glyphosate assay. A 150 ml culture of each bacteria was grown in DF minimal medium with 0.2 mM HK2 PO4 as a phosphate source in a 500 ml flask, 30° C., with shaking. The bacteria were pelleted by centrifugation at 5,000×g for 10 min and resuspended at 10 mg fresh weight/ml. An assay mix included 50 μl cells plus 10 μl (3-^14 C-) glyceryl glyphosate (10,000 cpm/μl) and kept at 30° C. with shaking. After a three hour incubation period, the cells were pelleted in a microfuge and the supernatant injected onto an HPLC anion exchange column and glyphosate analyzed as described above. The pellet was washed twice with 1 ml 10 mM HEPES, pH 7.0, and resuspended in 25 μl buffer. The cells were lysed with 25 μl quench and the debris pelleted in a microfuge. The pellet extract was then analyzed for glyphosate product as described above. […]

Experiment [2] has as its system PG2982 crude extract. The experiment can be described thus: In vitro radioactive hydrolysis assay in crude extracts. Format: biochemical, Pseudomonas caryophilli. Conditions: strain PG2982. An excerpt:
The enzymatic reaction can be assayed using labelled (3-^14 C-) glyceryl glyphosate as a substrate and following the conversion to (3-^14 C-)glyphosate as a product using a high pressure liquid chromatography system with a radioactive detector. This assay is the most specific for the phosphonate monoester hydrolase enzymes useful for conditional cell lethality. An enzyme assay consists of 40,000 cpm of labelled (3-^14 C-) glyceryl glyphosate (obtained from NEN Biochemicals), the PEH sample in buffer and buffer to 100 μl final volume. The assay buffer is 10 mM Bis-Tris propane, pH 9.0, plus 100 mM KCl. The reaction is run for 1 hour at 30° C. and then stopped by the addition of 100 μl "quench" which is 100 mM sodium acetate, pH 5.5, in ethanol. […] The radioactivity of the peaks is measured and integrated by a post-column detector. […]
Bacteria which grew in this medium using glyceryl glyphosate as a sole phosphate source had the ability to cleave both the ester and the phosphonate bond to release the free phosphate. […] After a three hour incubation period, the cells were pelleted in a microfuge and the supernatant injected onto an HPLC anion exchange column and glyphosate analyzed as described above. […] The pellet extract was then analyzed for glyphosate product as described above. […]

As for `O=C(O)CNCP(=O)(O)OCC(O)CO` (centres unmarked) [glyceryl glyphosate, glycine, N-([hydroxy (2,3 dihydroxy propoxy)phosphonyl]methyl)], the “In vivo Hydrolysis of Glyceryl Glyphosate into Glyphosate” value in experiment [1] was “Yes”. Also, in experiment [2], the “Hydrolysis of Glyceryl Glyphosate into Glyphosate in Crude Extracts” value is recorded as “Yes”.
